These molecules were tested against Adenosylhomocysteinase (Bos taurus) (assay: Inhibitory activity against bovine liver S-adenosyl-L-homocysteine hydrolase (AdoHcy) rate of inactivation by NpcA).

| Compound | Ki [nM] |
| --- | --- |
| Nc1ncnc2c1ncn2[C@@H]1C[C@H](c2ccccc2)[C@@H](O)[C@H]1O | 67600 |
| CC[C@H]1C[C@@H](n2cnc3c(N)ncnc32)[C@H](O)[C@@H]1O | 586 |
| C[C@@H]1C[C@@H](n2cnc3c(N)ncnc32)[C@H](O)[C@@H]1O | 5020 |
| C=C[C@H]1C[C@@H](n2cnc3c(N)ncnc32)[C@H](O)[C@@H]1O | 22 |
| C[C@H]1C[C@@H](n2cnc3c(N)ncnc32)[C@H](O)[C@@H]1O | 27 |
| CC1=C[C@@H](n2cnc3c(N)ncnc32)[C@H](O)[C@@H]1O | 9150 |

Further lines, results first:

| Ki [nM] | Compound |
| --- | --- |
| 49 | Nc1ncnc2c1ncn2[C@@H]1C=C[C@@H](O)[C@H]1O |
| 12 | Nc1ncnc2c1ncn2[C@@H]1CC[C@@H](O)[C@H]1O [(1R,2S,3R)-3-(6-amino-9H-purin-9-yl)cyclopentane-1,2-diol] |

Reference: BindingDB's records for doi:10.1021/jm00088a013 (University of Kansas, 1992)
